Columns and labels:
CCRF-CEM = assay: Growth inhibition of human CCRF-CEM cells after 48 hrs by sulforhodamine B assay; type: functional
A549 = assay: Growth inhibition of human A549 cells after 48 hrs by sulforhodamine B assay; type: functional; conditions: A549, 48 h
SF-268 = assay: Growth inhibition of human SF268 cells after 48 hrs by sulforhodamine B assay; type: functional; conditions: SF-268, 48 h
IGROV-1 = assay: Growth inhibition of human IGROV1 cells after 48 hrs by sulforhodamine B assay; type: functional; conditions: IGROV-1, 48 h
[1] = Growth inhibition of human Hs 578T cells after 48 hrs by sulforhodamine B assay; type: functional
COLO 205 = assay: Growth inhibition of human COLO205 cells after 48 hrs by sulforhodamine B assay; type: functional; conditions: COLO 205, 48 h
SK-MEL-2 = assay: Growth inhibition of human SK-MEL-2 cells after 48 hrs by sulforhodamine B assay; type: functional; conditions: SK-MEL-2, 48 h
RXF 393 = assay: Growth inhibition of human RXF393 cells after 48 hrs by sulforhodamine B assay; type: functional; conditions: RXF 393, 48 h
OVCAR-4 = assay: Growth inhibition of human OVCAR4 cells after 48 hrs by sulforhodamine B assay; type: functional; conditions: OVCAR-4, 48 h
HCC 2998 = assay: Growth inhibition of human HCC2998 cells after 48 hrs by sulforhodamine B assay; type: functional; conditions: HCC 2998, 48 h
UO-31 = assay: Growth inhibition of human UO31 cells after 48 hrs by sulforhodamine B assay; type: functional; conditions: UO-31, 48 h
HL-60 = assay: Growth inhibition of human HL-60(TB) cells after 48 hrs by sulforhodamine B assay; type: functional; conditions: HL-60, 48 h
Plasmodium falciparum = assay: Antimalarial activity after 72 hrs against chloroquine-resistant Plasmodium falciparum W2 infected erythrocytes by LDH assay; type: functional, organism-based; conditions: W2, 72 h
EKVX = assay: Growth inhibition of human EKVX cells after 48 hrs by sulforhodamine B assay; type: functional
SK-MEL-28 = assay: Growth inhibition of human SK-MEL-28 cells after 48 hrs by sulforhodamine B assay; type: functional; conditions: SK-MEL-28, 48 h
SW-620 = assay: Growth inhibition of human SW620 cells after 48 hrs by sulforhodamine B assay; type: functional; conditions: SW-620, 48 h
CAKI-1 = assay: Growth inhibition of human Caki1 cells after 48 hrs by sulforhodamine B assay; type: functional; conditions: CAKI-1, 48 h
OVCAR-8 = assay: Growth inhibition of human OVCAR8 cells after 48 hrs by sulforhodamine B assay; type: functional; conditions: OVCAR-8, 48 h
NCI-H23 = assay: Growth inhibition of human NCI-H23 cells after 48 hrs by sulforhodamine B assay; type: functional; conditions: NCI-H23, 48 h
NCI-H460 = assay: Growth inhibition of human NCI-H460 cells after 48 hrs by sulforhodamine B assay; type: functional; conditions: NCI-H460, 48 h
HCT-15 = assay: Growth inhibition of human HCT15 cells after 48 hrs by sulforhodamine B assay; type: functional; conditions: HCT-15, 48 h
HOP-62 = assay: Growth inhibition of human HOP62 cells after 48 hrs by sulforhodamine B assay; type: functional; conditions: HOP-62, 48 h
BT-549 = assay: Growth inhibition of human BT549 cells after 48 hrs by sulforhodamine B assay; type: functional; conditions: BT-549, 48 h
OVCAR-3 = assay: Growth inhibition of human OVCAR-3 cells after 48 hrs by sulforhodamine B assay; type: functional; conditions: OVCAR-3, 48 h
SR = assay: Growth inhibition of human SR cells after 48 hrs by sulforhodamine B assay; type: functional
U-251 = assay: Growth inhibition of human U251 cells after 48 hrs by sulforhodamine B assay; type: functional; conditions: U-251, 48 h
LOX IMVI = assay: Growth inhibition of human LOXIMVI cells after 48 hrs by sulforhodamine B assay; type: functional
NCI/ADR-RES = assay: Growth inhibition of human NCI/ADR-RES cells after 48 hrs by sulforhodamine B assay; type: functional
ACHN = assay: Growth inhibition of human ACHN cells after 48 hrs by sulforhodamine B assay; type: functional
HOP-92 = assay: Growth inhibition of human HOP92 cells after 48 hrs by sulforhodamine B assay; type: functional; conditions: HOP-92, 48 h
TK-10 = assay: Growth inhibition of human TK10 cells after 48 hrs by sulforhodamine B assay; type: functional; conditions: TK-10, 48 h
A498 = assay: Growth inhibition of human A498 cells after 48 hrs by sulforhodamine B assay; type: functional; conditions: A498, 48 h
SNB-75 = assay: Growth inhibition of human SNB75 cells after 48 hrs by sulforhodamine B assay; type: functional; conditions: SNB-75, 48 h
SK-MEL-5 = assay: Growth inhibition of human SK-MEL-5 cells after 48 hrs by sulforhodamine B assay; type: functional; conditions: SK-MEL-5, 48 h
MCF7 = assay: Growth inhibition of human MCF7 cells after 48 hrs by sulforhodamine B assay; type: functional; conditions: MCF7, 48 h
MOLT-4 = assay: Growth inhibition of human MOLT4 cells after 48 hrs by sulforhodamine B assay; type: functional; conditions: MOLT-4, 48 h
MDA-MB-435 = assay: Growth inhibition of human MDA-MB-435 cells after 48 hrs by sulforhodamine B assay; type: functional; conditions: MDA-MB-435, 48 h
[2] = Selectivity index, ratio of TC50 for african green monkey (Cercopithecus aethiops) Vero cells to IC50 for chloroquine-resistant Plasmodium falciparum W2; type: toxicity, cell-based
786-0 = assay: Growth inhibition of human 786-0 cells after 48 hrs by sulforhodamine B assay; type: functional; conditions: 786-0, 48 h
SNB-19 = assay: Growth inhibition of human SNB19 cells after 48 hrs by sulforhodamine B assay; type: functional; conditions: SNB-19, 48 h
NCI-H522 = assay: Growth inhibition of human NCI-H522 cells after 48 hrs by sulforhodamine B assay; type: functional; conditions: NCI-H522, 48 h
SN12C = assay: Growth inhibition of human SN12C cells after 48 hrs by sulforhodamine B assay; type: functional
NCI-H322M = assay: Growth inhibition of human NCI-H322M cells after 48 hrs by sulforhodamine B assay; type: functional
HT-29 = assay: Growth inhibition of human HT-29 cells after 48 hrs by sulforhodamine B assay; type: functional; conditions: HT-29, 48 h
HCT-116 = assay: Growth inhibition of human HCT116 cells after 48 hrs by sulforhodamine B assay; type: functional; conditions: HCT-116, 48 h
Malme-3M = assay: Growth inhibition of human MALME-3M cells after 48 hrs by sulforhodamine B assay; type: functional
MDA-MB-231 = assay: Growth inhibition of human MDA-MB-231 cells after 48 hrs by sulforhodamine B assay; type: functional; conditions: MDA-MB-231, 48 h
KM12 = assay: Growth inhibition of human KM12 cells after 48 hrs by sulforhodamine B assay; type: functional; conditions: KM12, 48 h
K562 = assay: Growth inhibition of human K562 cells after 48 hrs by sulforhodamine B assay; type: functional; conditions: K562, 48 h
SF-539 = assay: Growth inhibition of human SF539 cells after 48 hrs by sulforhodamine B assay; type: functional; conditions: SF-539, 48 h

With `C[C@H]1[C@@H](O[C@H]2CC[C@@H](O[C@H]3O[C@@H]4O[C@@]5(C)CC[C@H]6[C@H](C)CC[C@@H]([C@H]3C)[C@@]46OO5)CC2)O[C@@H]2O[C@@]3(C)CC[C@H]4[C@H](C)CC[C@@H]1[C@@]24OO3` the GI50 (CCRF-CEM) was < 5 nM, the GI50 (A549) was 20 nM and the GI50 (SF-268) was 34 nM. It also gave a GI50 (IGROV-1) of 6750 nM, a GI50 [1] of 49 nM and a GI50 (COLO 205) of 7 nM. It also gave a GI50 (SK-MEL-2) of 24 nM, a GI50 (RXF 393) of 18 nM and a GI50 (OVCAR-4) of 24 nM. It also gave a GI50 (HCC 2998) of 18 nM, a GI50 (UO-31) of 18 nM and a GI50 (HL-60) of 17 nM. The IC50 (Plasmodium falciparum) was 8000 nM, the GI50 (EKVX) was 24 nM and the GI50 (SK-MEL-28) was 85 nM. It also gave a GI50 (SW-620) of 12 nM, a GI50 (CAKI-1) of 37 nM and a GI50 (OVCAR-8) of 19 nM. It also gave a GI50 (NCI-H23) of 22 nM, a GI50 (NCI-H460) of 17 nM and a GI50 (HCT-15) of 14 nM. The GI50 (HOP-62) was 12300 nM, the GI50 (BT-549) was 42 nM and the GI50 (OVCAR-3) was 15 nM. The GI50 (SR) was 14 nM, the GI50 (U-251) was 19 nM and the GI50 (LOX IMVI) was 17 nM. For the same molecule, the GI50 (NCI/ADR-RES) was 77 nM, the GI50 (ACHN) was 27 nM and the GI50 (HOP-92) was 17 nM. The GI50 (TK-10) was 29 nM, the GI50 (A498) was 40 nM and the GI50 (SNB-75) was 30 nM. The GI50 (SK-MEL-5) was 17 nM, the GI50 (MCF7) was 16 nM and the GI50 (MOLT-4) was 20 nM. The GI50 (MDA-MB-435) was 28 nM, the selectivity ratio [2] was > 915 and the GI50 (786-0) was 31 nM. The GI50 (SNB-19) was 99 nM, the GI50 (NCI-H522) was 21 nM and the GI50 (SN12C) was 25 nM. The GI50 (NCI-H322M) was 16600 nM, the GI50 (HT-29) was 26 nM and the GI50 (HCT-116) was 16 nM. For the same molecule, the GI50 (Malme-3M) was 44 nM, the GI50 (MDA-MB-231) was 92 nM and the GI50 (KM12) was 12 nM. It also gave a GI50 (K562) of 14 nM and a GI50 (SF-539) of 20 nM.

With `C[C@H]1[C@@H](O[C@H]2CC[C@H](O[C@H]3O[C@@H]4O[C@@]5(C)CC[C@H]6[C@H](C)CC[C@@H]([C@H]3C)[C@@]46OO5)CC2)O[C@@H]2O[C@@]3(C)CC[C@H]4[C@H](C)CC[C@@H]1[C@@]24OO3` the GI50 (CCRF-CEM) was < 10 nM, the GI50 (A549) was 18.8 nM and the GI50 (SF-268) was 108 nM. For the same molecule, the GI50 (IGROV-1) was 55 nM, the GI50 [1] was 63 nM and the GI50 (COLO 205) was < 10 nM. It also gave a GI50 (SK-MEL-2) of 296 nM, a GI50 (RXF 393) of 294 nM and a GI50 (OVCAR-4) of 53 nM. For the same molecule, the GI50 (HCC 2998) was 18 nM, the GI50 (UO-31) was 123 nM and the GI50 (HL-60) was 32 nM. For the same molecule, the IC50 (Plasmodium falciparum) was 13300 nM, the GI50 (EKVX) was 28 nM and the GI50 (SK-MEL-28) was 98800 nM. The GI50 (SW-620) was 24 nM, the GI50 (CAKI-1) was 326 nM and the GI50 (OVCAR-8) was 57 nM. For the same molecule, the GI50 (NCI-H23) was 43 nM, the GI50 (NCI-H460) was 28 nM and the GI50 (HCT-15) was < 10 nM. For the same molecule, the GI50 (HOP-62) was 65 nM, the GI50 (BT-549) was 21 nM and the GI50 (OVCAR-3) was 67 nM. The GI50 (SR) was 306 nM, the GI50 (U-251) was 16 nM and the GI50 (LOX IMVI) was 13 nM. It also gave a GI50 (NCI/ADR-RES) of 130 nM, a GI50 (ACHN) of 42 nM and a GI50 (HOP-92) of 21 nM. It also gave a GI50 (TK-10) of 119 nM, a GI50 (A498) of 376 nM and a GI50 (SNB-75) of 202 nM. The GI50 (SK-MEL-5) was 49 nM, the GI50 (MCF7) was 42 nM and the GI50 (MOLT-4) was 99 nM. For the same molecule, the GI50 (MDA-MB-435) was 70 nM, the selectivity ratio [2] was > 553 and the GI50 (786-0) was 27 nM. It also gave a GI50 (SNB-19) of 372 nM, a GI50 (NCI-H522) of 36 nM and a GI50 (SN12C) of 97 nM. For the same molecule, the GI50 (NCI-H322M) was 672 nM, the GI50 (HT-29) was 11 nM and the GI50 (HCT-116) was < 10 nM. The GI50 (Malme-3M) was 71 nM, the GI50 (MDA-MB-231) was 520 nM and the GI50 (KM12) was 11 nM. For the same molecule, the GI50 (K562) was 41 nM and the GI50 (SF-539) was 92 nM.

— ChEMBL document CHEMBL1140860, “Synthesis and evaluation of dihydroartemisinin and dihydroartemisitene acetal dimers showing anticancer and antiprotozoal activity” (Bioorg Med Chem, 2009)
